# Species on record: Rattus norvegicus
# Assay: Open TG-GATES - Regimen: Daily Repeat
# Format: toxicity, organism-based, Sprague-Dawley
# Design: regimen Daily Repeat, gender Male, age 6 weeks
# Conditions: in vivo, po, route gavage; for Eos / Hb / Ht / Lym / MCH / MCHC / MCV / Mono / Neu / Plat / RBC / Ret / WBC / APTT / Bas / PT: tissue Blood; for KIDNEY_L / KIDNEY_R / KIDNEY_TOTAL: tissue Kidney; for LIVER: tissue Liver; for ALT / AST / BUN / CRE / Ca / DBIL / GLC / IP / K / LDH / Na / PL / RALB / TBIL / TC / TG / TP / gamma-GTP / ALP: tissue Plasma
# [1] = 300 mg/kg, 72 h, dose level Middle, time 3 day
# [2] = 300 mg/kg, […], dose level Middle, time 7 day
# [3] = 300 mg/kg, […], dose level Middle, time 14 day
# [4] = 300 mg/kg, […], dose level Middle, time 28 day
# [5] = 1000 mg/kg, 72 h, dose level High, time 3 day
# [6] = 1000 mg/kg, […], dose level High, time 7 day
# [7] = 1000 mg/kg, […], dose level High, time 14 day
# [8] = 1000 mg/kg, […], dose level High, time 28 day
smiles,measurement,setting,value
C[C@H](CS)C(=O)N1CCC[C@H]1C(=O)O [CAPTOPRIL],Eos,[1],1.2%
same,Hb,[1],13.3 g/dL
same,Ht,[1],40.2%
same,Lym,[1],79.4%
same,MCH,[1],21.4 pg
same,MCHC,[1],33.1%
same,MCV,[1],64.5 fL
same,Mono,[1],4.2%
same,Neu,[1],15.2%
same,Plat,[1],111.4 x10_4/uL
same,RBC,[1],623.2 x10_4/ul
same,Ret,[1],7.7%
same,WBC,[1],92.7 x10_2/uL
same,KIDNEY_L,[1],1.1 g
same,KIDNEY_R,[1],1.1 g
same,KIDNEY_TOTAL,[1],2.2 g
same,LIVER,[1],12.3 g
same,ALT,[1],40.6 IU/L
same,AST,[1],61 IU/L
same,BUN,[1],17.8 mg/dL
same,CRE,[1],0.5 mg/dL
same,Ca,[1],11.5 mg/dL
same,DBIL,[1],0.022 mg/dL
same,GLC,[1],195.4 mg/dL
same,IP,[1],8.8 mg/dL
same,K,[1],5.1 meq/L
same,LDH,[1],89 IU/L
same,Na,[1],136 meq/L
same,PL,[1],143.4 mg/dL
same,RALB,[1],4.2 g/dL
same,TBIL,[1],0.4 mg/dL
same,TC,[1],76 mg/dL
same,TG,[1],73.8 mg/dL
same,TP,[1],6.1 g/dL
same,gamma-GTP,[1],0.8 IU/L
same,TERMINAL_BW,[2],259.5 g
same,TERMINAL_BW,[3],288.5 g
same,TERMINAL_BW,[4],322 g
same,APTT,[2],16.4 s
same,Bas,[2],0%
same,Eos,[2],1.2%
same,Hb,[2],13.3 g/dL
same,Ht,[2],39.7%
same,Lym,[2],85.2%
same,MCH,[2],21.2 pg
same,MCHC,[2],33.4%
same,MCV,[2],63.6 fL
same,Mono,[2],4.6%
same,Neu,[2],9.2%
same,Plat,[2],127.2 x10_4/uL
same,RBC,[2],625.8 x10_4/ul
same,Ret,[2],4.7%
same,WBC,[2],127.6 x10_2/uL
same,APTT,[3],16.6 s
same,Bas,[3],0%
same,Eos,[3],1%
same,Hb,[3],13 g/dL
same,Ht,[3],38.6%
same,Lym,[3],83.2%
same,MCH,[3],20.5 pg
same,MCHC,[3],33.7%
same,MCV,[3],60.7 fL
same,Mono,[3],4%
same,Neu,[3],11.4%
same,PT,[3],11.7 s
same,Plat,[3],128.4 x10_4/uL
same,RBC,[3],636.4 x10_4/ul
same,Ret,[3],4.4%
same,WBC,[3],183.2 x10_2/uL
same,APTT,[4],15.5 s
same,Bas,[4],0%
same,Eos,[4],1%
same,Hb,[4],14 g/dL
same,Ht,[4],41.6%
same,Lym,[4],82.2%
same,MCH,[4],19.3 pg
same,MCHC,[4],33.7%
same,MCV,[4],57.4 fL
same,Mono,[4],3.6%
same,Neu,[4],13.6%
same,PT,[4],11.9 s
same,Plat,[4],112.2 x10_4/uL
same,RBC,[4],724.6 x10_4/ul
same,Ret,[4],2.9%
same,WBC,[4],165.2 x10_2/uL
same,KIDNEY_L,[2],1.2 g
same,KIDNEY_R,[2],1.2 g
same,KIDNEY_TOTAL,[2],2.3 g
same,KIDNEY_L,[3],1.2 g
same,KIDNEY_R,[3],1.3 g
same,KIDNEY_TOTAL,[3],2.5 g
same,KIDNEY_L,[4],1.3 g
same,KIDNEY_R,[4],1.4 g
same,KIDNEY_TOTAL,[4],2.7 g
same,LIVER,[2],11.7 g
same,LIVER,[3],12.4 g
same,LIVER,[4],12.4 g
same,ALT,[2],32.8 IU/L
same,AST,[2],63.2 IU/L
same,BUN,[2],20.6 mg/dL
same,CRE,[2],0.6 mg/dL
same,Ca,[2],11 mg/dL
same,DBIL,[2],0.006 mg/dL
same,GLC,[2],192 mg/dL
same,IP,[2],8 mg/dL
same,K,[2],4.8 meq/L
same,LDH,[2],109.6 IU/L
same,Na,[2],138.2 meq/L
same,PL,[2],132 mg/dL
same,RALB,[2],3.8 g/dL
same,TBIL,[2],0.3 mg/dL
same,TC,[2],72.8 mg/dL
same,TG,[2],73.4 mg/dL
same,TP,[2],5.8 g/dL
same,gamma-GTP,[2],2.2 IU/L
same,ALP,[3],824.2 IU/L
same,ALT,[3],40.2 IU/L
same,AST,[3],66.6 IU/L
same,BUN,[3],24.4 mg/dL
same,CRE,[3],0.6 mg/dL
same,DBIL,[3],0.012 mg/dL
same,GLC,[3],203.6 mg/dL
same,IP,[3],7.8 mg/dL
same,K,[3],4.6 meq/L
same,LDH,[3],86.6 IU/L
same,Na,[3],135.2 meq/L
same,PL,[3],151 mg/dL
same,RALB,[3],3.8 g/dL
same,TBIL,[3],0.3 mg/dL
same,TC,[3],81.4 mg/dL
same,TG,[3],67 mg/dL
same,TP,[3],5.9 g/dL
same,gamma-GTP,[3],1.4 IU/L
same,ALP,[4],617.4 IU/L
same,ALT,[4],35.4 IU/L
same,AST,[4],65.8 IU/L
same,BUN,[4],30.8 mg/dL
same,CRE,[4],0.6 mg/dL
same,DBIL,[4],0.024 mg/dL
same,GLC,[4],191.2 mg/dL
same,IP,[4],7.4 mg/dL
same,K,[4],4.6 meq/L
same,Na,[4],136.8 meq/L
same,PL,[4],156.6 mg/dL
same,RALB,[4],4 g/dL
same,TBIL,[4],0.4 mg/dL
same,TC,[4],84.8 mg/dL
same,TG,[4],79 mg/dL
same,TP,[4],6.1 g/dL
same,gamma-GTP,[4],0.4 IU/L
same,TERMINAL_BW,[5],233.8 g
same,APTT,[5],16.1 s
same,Bas,[5],0%
same,Eos,[5],1.2%
same,Hb,[5],13.3 g/dL
same,Ht,[5],39.9%
same,Lym,[5],80.6%
same,MCH,[5],21.3 pg
same,MCHC,[5],33.2%
same,MCV,[5],64 fL
same,Mono,[5],5.2%
same,Neu,[5],13.4%
same,PT,[5],11.1 s
same,Plat,[5],122.3 x10_4/uL
same,RBC,[5],623.8 x10_4/ul
same,Ret,[5],6.2%
same,KIDNEY_L,[5],1.1 g
same,KIDNEY_R,[5],1.1 g
same,KIDNEY_TOTAL,[5],2.2 g
same,LIVER,[5],11 g
same,ALP,[5],971.8 IU/L
same,ALT,[5],40.6 IU/L
same,AST,[5],63 IU/L
same,BUN,[5],22.6 mg/dL
same,CRE,[5],0.5 mg/dL
same,Ca,[5],11.2 mg/dL
same,DBIL,[5],0.016 mg/dL
same,GLC,[5],193.4 mg/dL
same,IP,[5],8.2 mg/dL
same,K,[5],5 meq/L
same,LDH,[5],90.4 IU/L
same,Na,[5],135.2 meq/L
same,PL,[5],148.8 mg/dL
same,RALB,[5],3.9 g/dL
same,TBIL,[5],0.4 mg/dL
same,TC,[5],82.4 mg/dL
same,TG,[5],93.4 mg/dL
same,TP,[5],5.8 g/dL
same,gamma-GTP,[5],1.4 IU/L
same,TERMINAL_BW,[6],249.2 g
same,TERMINAL_BW,[7],310.3 g
same,TERMINAL_BW,[8],359.7 g
same,APTT,[6],16.3 s
same,Bas,[6],0%
same,Eos,[6],1.2%
same,Hb,[6],12.7 g/dL
same,Ht,[6],37.9%
same,Lym,[6],82.4%
same,MCH,[6],21.3 pg
same,MCHC,[6],33.5%
same,MCV,[6],63.6 fL
same,Mono,[6],4.6%
same,Neu,[6],11.8%
same,Plat,[6],123.8 x10_4/uL
same,RBC,[6],595.6 x10_4/ul
same,Ret,[6],4%
same,WBC,[6],141 x10_2/uL
same,APTT,[7],16.7 s
same,Bas,[7],0%
same,Eos,[7],1.2%
same,Hb,[7],12.7 g/dL
same,Ht,[7],37.6%
same,Lym,[7],81.8%
same,MCH,[7],20.6 pg
same,MCHC,[7],33.6%
same,MCV,[7],61.4 fL
same,Mono,[7],4.6%
same,Neu,[7],12.4%
same,PT,[7],11.5 s
same,Plat,[7],122.1 x10_4/uL
same,RBC,[7],614 x10_4/ul
same,Ret,[7],3.1%
same,WBC,[7],160.2 x10_2/uL
same,APTT,[8],16.4 s
same,Bas,[8],0%
same,Eos,[8],1.2%
same,Hb,[8],13.4 g/dL
same,Ht,[8],40.3%
same,Lym,[8],90.2%
same,MCH,[8],20 pg
same,MCHC,[8],33.2%
same,MCV,[8],60.1 fL
same,Mono,[8],2.8%
same,Neu,[8],6%
same,PT,[8],11.9 s
same,Plat,[8],96.2 x10_4/uL
same,RBC,[8],671.8 x10_4/ul
same,Ret,[8],3.7%
same,WBC,[8],236.5 x10_2/uL
same,KIDNEY_L,[6],1.2 g
same,KIDNEY_R,[6],1.3 g
same,KIDNEY_TOTAL,[6],2.5 g
same,KIDNEY_L,[7],1.3 g
same,KIDNEY_R,[7],1.4 g
same,KIDNEY_TOTAL,[7],2.7 g
same,KIDNEY_L,[8],1.5 g
same,KIDNEY_R,[8],1.6 g
same,KIDNEY_TOTAL,[8],3.1 g
same,LIVER,[7],13.5 g
same,LIVER,[8],15.1 g
same,ALP,[6],755.6 IU/L
same,ALT,[6],32.2 IU/L
same,AST,[6],53.8 IU/L
same,BUN,[6],46.4 mg/dL
same,CRE,[6],0.6 mg/dL
same,DBIL,[6],0.012 mg/dL
same,GLC,[6],192.8 mg/dL
same,IP,[6],7.7 mg/dL
same,K,[6],5.2 meq/L
same,LDH,[6],78.6 IU/L
same,Na,[6],136.8 meq/L
same,PL,[6],141.4 mg/dL
same,RALB,[6],3.5 g/dL
same,TBIL,[6],0.4 mg/dL
same,TC,[6],88.2 mg/dL
same,TG,[6],52.6 mg/dL
same,TP,[6],5.6 g/dL
same,gamma-GTP,[6],2 IU/L
same,ALP,[7],859.4 IU/L
same,ALT,[7],35.2 IU/L
same,AST,[7],58.8 IU/L
same,BUN,[7],38.8 mg/dL
same,CRE,[7],0.6 mg/dL
same,DBIL,[7],0.008 mg/dL
same,GLC,[7],191.8 mg/dL
same,IP,[7],7.8 mg/dL
same,K,[7],5 meq/L
same,LDH,[7],78.2 IU/L
same,Na,[7],133.8 meq/L
same,PL,[7],151.8 mg/dL
same,RALB,[7],3.7 g/dL
same,TBIL,[7],0.4 mg/dL
same,TC,[7],80.6 mg/dL
same,TG,[7],85.6 mg/dL
same,TP,[7],5.7 g/dL
same,gamma-GTP,[7],1.2 IU/L
same,ALP,[8],768 IU/L
same,ALT,[8],45 IU/L
same,AST,[8],71.5 IU/L
same,BUN,[8],32 mg/dL
same,CRE,[8],0.6 mg/dL
same,DBIL,[8],0.015 mg/dL
same,GLC,[8],207 mg/dL
same,IP,[8],7.7 mg/dL
same,K,[8],4.6 meq/L
same,LDH,[8],110.2 IU/L
same,Na,[8],135.8 meq/L
same,PL,[8],127.8 mg/dL
same,RALB,[8],3.6 g/dL
same,TBIL,[8],0.5 mg/dL
same,TC,[8],69 mg/dL
same,TG,[8],72.8 mg/dL
same,TP,[8],5.7 g/dL
same,gamma-GTP,[8],0.8 IU/L

# Reference: ChEMBL document CHEMBL3885861, “Open TG-GATES”
